Data from patent publication US20230357139A1, “SMALL MOLECULE INHIBITORS OF BACTERIAL TOXINS” (Artizan Biosciences, Inc., priority 2020, published 2023).
pIC50: −log10 of the molar value. Where two headings read alike, the source gives them in different places.

Experiments:
[1] = target: Gelatinase E (GelE) (Enterococcus faecalis (strain ATCC 700802 / V583), UniProt Q833V7); assay: Gelatinase E activity assay (FRET peptide substrate); type: biochemical; details: for pIC50: Table 11
Procedure: Gelatinase E (Gel E) was purified from bacterial culture supernatant from E. faecalis. E. faecalis was cultured aerobically in Todd Hewitt Broth overnight at 37° C. Nucleic acid was precipitated with 0.9% protamine solution, followed by protein precipitation with ammonium sulfate. Resuspended protein pellet was further subjected to purification using FPLC (phenyl Sepharose column). Fractions with gelatinase activity as determined by casein agar assay were pooled and further concentrated.
Different concentrations of test compound were incubated with purified GelE and FRET-based peptide substrate (390 MMP FRET Substrate 1; Anaspec AS-27077) in assay buffer at room temperature for 30 minutes. The fluorescence signal was determined by a plate reader.

[2] = target: collagenase H (ColH) (Hathewaya histolytica, UniProt Q46085); assay: biochemical; parameters: species or system Clostridium histolyticum
[3] = tested on: BFT; assay: E-cadherin release assay (BFT-induced E-cadherin release from HT29 cells); type: cell-based, B. fragilis
Procedure: Test compounds were also screened for their ability to inhibit BFT-induced E-cadherin release from HT29 cells.
Different concentrations of test compounds were pre-incubated with rBFT for one hour at 37° C. The rBFT-compound mixture was then added to HT29 cells and incubated at 37° C. for 18 hours. Following incubation, cell supernatants were harvested and E-cadherin was quantified in the supernatants by ELISA (FIG. 2).

[4] = tested on: recombinant BFT (rBFT); assay: NFF-3 cleavage assay; type: biochemical, B. fragilis
Procedure: A NFF-3 cleavage assay was used to test activity of recombinant BFT, before or after addition of various inhibitors. The NFF-3 cleavage assay was previously described by Goulas et al., PNAS, 2011, 108(5) 1856-1861, which is incorporated by reference herein in its entirety.
Initially, recombinant BFT (rBFT) (0.25, 0.5, 1, 2, 4, 8, or 16 μg/mL) was incubated at 37° C. with the fluorogenic substrate NFF-3 (Cayman Chemical) at a concentration of 2.5 μM, 5 μM, or 10 μM. After 18 hours, fluorescence was measured in a microplate fluorimeter.
Next, rBFT was pre-incubated with one or more test compounds at different concentrations for 30 minutes at 37° C. The rBFT-compound mixture was then added to NFF-3 and incubated for 24 hours at 37° C. Fluorescence was then measured in a microplate fluorimeter.

[5] = 18 hours, E-cadherin in supernatant by ELISA, read-out: HT29 Cell IC50
[6] = rBFT pre-incubated with compound 30 minutes at 37° C., then NFF-3 for 24 hours, read-out: NFF3 IC50

Sequence of collagenase H (ColH) (Q46085 41-1021 limits assumed): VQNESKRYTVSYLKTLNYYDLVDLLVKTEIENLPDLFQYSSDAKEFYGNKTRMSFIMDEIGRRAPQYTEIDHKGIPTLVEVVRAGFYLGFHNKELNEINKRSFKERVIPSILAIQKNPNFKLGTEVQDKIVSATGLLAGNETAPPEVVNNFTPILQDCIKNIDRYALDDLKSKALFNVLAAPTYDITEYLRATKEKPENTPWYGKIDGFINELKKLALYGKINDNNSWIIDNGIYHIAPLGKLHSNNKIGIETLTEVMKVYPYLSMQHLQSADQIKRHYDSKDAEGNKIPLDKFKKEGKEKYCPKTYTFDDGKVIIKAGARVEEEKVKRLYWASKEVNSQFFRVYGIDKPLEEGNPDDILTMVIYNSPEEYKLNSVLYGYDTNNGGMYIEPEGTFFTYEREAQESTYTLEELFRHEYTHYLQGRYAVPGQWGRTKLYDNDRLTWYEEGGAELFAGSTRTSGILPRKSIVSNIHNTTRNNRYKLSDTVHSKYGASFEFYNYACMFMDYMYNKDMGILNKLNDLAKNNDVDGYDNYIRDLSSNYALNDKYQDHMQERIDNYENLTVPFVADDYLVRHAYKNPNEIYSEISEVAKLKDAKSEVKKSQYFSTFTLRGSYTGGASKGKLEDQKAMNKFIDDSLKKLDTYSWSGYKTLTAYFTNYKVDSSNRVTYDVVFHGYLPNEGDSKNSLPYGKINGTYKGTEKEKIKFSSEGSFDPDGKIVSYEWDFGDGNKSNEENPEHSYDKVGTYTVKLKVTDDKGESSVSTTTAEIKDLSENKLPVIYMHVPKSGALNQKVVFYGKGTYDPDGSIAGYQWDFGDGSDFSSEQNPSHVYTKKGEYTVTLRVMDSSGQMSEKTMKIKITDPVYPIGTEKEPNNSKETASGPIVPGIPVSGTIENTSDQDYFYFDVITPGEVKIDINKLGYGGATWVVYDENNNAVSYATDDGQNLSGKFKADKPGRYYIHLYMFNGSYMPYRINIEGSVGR
Sequence of Gelatinase E (GelE) (Q833V7 193-510 limits assumed): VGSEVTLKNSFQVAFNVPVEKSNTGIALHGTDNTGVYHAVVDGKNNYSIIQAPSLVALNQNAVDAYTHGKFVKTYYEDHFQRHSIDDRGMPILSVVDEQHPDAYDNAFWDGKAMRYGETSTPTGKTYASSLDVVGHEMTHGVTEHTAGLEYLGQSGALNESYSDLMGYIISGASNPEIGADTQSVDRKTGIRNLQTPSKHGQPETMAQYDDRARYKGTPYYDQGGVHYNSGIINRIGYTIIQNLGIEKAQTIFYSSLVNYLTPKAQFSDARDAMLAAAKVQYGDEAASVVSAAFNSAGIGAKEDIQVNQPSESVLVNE

| SMILES | pIC50 [3, 5] | pIC50 [4, 6] | further results |
| --- | --- | --- | --- |
| COc1ccc(S(=O)(=O)N(CC(=O)NO)CC(C)C)cc1 [A] | – | – | GelE inhibition ([1]; FIG. 7): high levels of GelE inhibition; pIC50 [1]: 6.69; ColH inhibition [2]: high levels of ColH inhibition; pIC50 ([2]; read-out: ColH IC50): 6.21 |
| CCOc1ccc(S(=O)(=O)N(CC(=O)NO)CC(C)C)cc1 [C] | – | – | pIC50 [1]: 6.43; pIC50 ([2]; read-out: ColH IC50): < 4.00 |
| CCCOc1ccc(S(=O)(=O)N(CC(=O)NO)CC(C)C)cc1 [D] | – | – | pIC50 [1]: 6.31; pIC50 ([2]; read-out: ColH IC50): < 4.00 |
| CC(C)CN(CC(=O)NO)S(=O)(=O)c1ccc(OC(C)C)cc1 [E] | – | – | pIC50 [1]: 5.92; pIC50 ([2]; read-out: ColH IC50): < 4.00 |
| CC(C)C[C@H](C(=O)NO)N(Cc1cccnc1)S(=O)(=O)c1ccc(O)cc1 [Example 1, (R)—N-hydroxy-2-((4-hydroxy-N-(pyridin-3-ylmethyl)phenyl)sulfonamido)-4-methylpentanamide] | 5.82 | > 6.82 | – |
| C[C@H](O)[C@H](C(=O)NO)N(Cc1cccnc1)S(=O)(=O)c1ccc(O)cc1 [Example 2] | 5.17 | < 6.00 | – |
| CSCC[C@H](C(=O)NO)N(Cc1cccnc1)S(=O)(=O)c1ccc(O)cc1 [Example 3] | 5.42 | 6.62 | – |
| O=C(NO)[C@@H](Cc1ccc(O)cc1)N(Cc1cccnc1)S(=O)(=O)c1ccc(O)cc1 [Example 4] | 5.20 | 5.69 | – |
| O=C(NO)[C@@H](Cc1ccccc1)N(Cc1cccnc1)S(=O)(=O)c1ccc(O)cc1 [Example 5] | 5.31 | 6.62 | – |
| O=C(NO)[C@@H](Cc1c[nH]c2ccccc12)N(Cc1cccnc1)S(=O)(=O)c1ccc(O)cc1 [Example 6] | 5.79 | 6.82 | – |
| COc1ccc(S(=O)(=O)N(Cc2cccnc2)[C@H](Cc2ccccc2)C(=O)NO)cc1 [Example 19] | 5.08 | 5.91 | – |
| O=C(NO)[C@@H](Cc1ccc(C(F)(F)F)cc1)N(Cc1cccnc1)S(=O)(=O)c1ccc(O)cc1 [Example 20] | 5.14 | 6.07 | – |
| COc1ccc(S(=O)(=O)N(Cc2cccnc2)[C@H](Cc2ccc(C(F)(F)F)cc2)C(=O)NO)cc1 [Example 21] | < 4.80 | 5.56 | – |
| O=C(NO)C(c1ccccc1)N(Cc1cccnc1)S(=O)(=O)c1ccc(O)cc1 (stereo not drawn) [Example 22] | 4.76 | 6.18 | – |
| O=C(NO)C(c1ccc(F)cc1)N(Cc1cccnc1)S(=O)(=O)c1ccc(O)cc1 (stereo not drawn) [Example 23] | < 4.30 | 6.52 | – |
| O=C(CN(Cc1cccnc1)S(=O)(=O)c1ccc(O)cc1)NO [Example 24] | 4.72 | 5.96 | – |
| CC[C@H](C(=O)NO)N(Cc1cccnc1)S(=O)(=O)c1ccc(O)cc1 [Example 25] | 6.11 | 7.05 | – |
| CC(C)C[C@H](C(=O)NO)N(Cc1cccnc1)S(=O)(=O)c1cccc(O)c1 [Example 27] | < 4.30 | 5.23 | – |
| CC(C)C[C@H](C(=O)NO)N(Cc1ccncc1)S(=O)(=O)c1ccc(O)cc1 [Example 28] | 6.70 | – | – |
| CC(C)C[C@H](C(=O)NO)N(Cc1cscn1)S(=O)(=O)c1ccc(O)cc1 [Example 30] | 6.01 | – | – |
| COc1cccc(S(=O)(=O)N(Cc2cccnc2)[C@H](CC(C)C)C(=O)NO)c1 [Example 31] | < 4.30 | 4.70 | – |
| CC(C)C[C@H](C(=O)NO)N(Cc1cnco1)S(=O)(=O)c1ccc(O)cc1 [Example 32] | 5.29 | 6.29 | – |
| CCC[C@H](C(=O)NO)N(Cc1ccc2[nH]ccc2c1)S(=O)(=O)c1ccc(O)cc1 [Example 63] | – | – | pIC50 [2]: 5.05 |
| CC(C)CN(CC(=O)NO)S(=O)(=O)c1ccc(OCc2ccc(F)cc2)cc1 [F] | – | – | pIC50 [1]: 6.19; pIC50 ([2]; read-out: ColH IC50): < 4.00 |
| COCCOc1ccc(S(=O)(=O)N(CC(=O)NO)CC(C)C)cc1 [G] | – | – | pIC50 [1]: 6.35; pIC50 ([2]; read-out: ColH IC50): < 4.00 |
| CC(C)[C@H](C(=O)NO)N(Cc1cccnc1)S(=O)(=O)c1ccc(O)cc1 [OH-CGS-27023A, 2(R)-[4-hydroxy-N-(3-pyridylmethyl)phenylsulfonamido]-3-methylbutyrohydroxamic acid, reference compound] | – | – | pIC50 ([3]; FIG. 4, read-out: IC50, inhibition of BFT (E-cadherin release)): 5.70; pIC50 ([4]; Table 9, FIG. 5B, read-out: IC50, inhibition of BFT-induced NFF-3 release): 6.44 |
